According to ChEMBL document CHEMBL3244268, “Nucleosides. 102. Synthesis of some 3'-deoxy-3'-substituted arabinofuranosylpyrimidine nucleosides” (1977):
In brackets after ≈: the same amount, converted by molar mass.

Experiments:
L5178Y [1] = assay: Growth inhibition of mouse L5178Y cells; type: functional; conditions: read-out: ID50 (the source's name)
L5178Y [2] = assay: Growth inhibition of mouse L5178Y cells at 10 ug/ml; type: functional; conditions: read-out: GI

SMILES | IC50 (L5178Y [1]) | inhibition of growth at 10 µg/mL (L5178Y [2])
[N-]=[N+]=N[C@H]1[C@H](O)[C@H](n2ccc(N)nc2=O)O[C@@H]1CO | 0.5 µg/mL (≈ 1.86 µM) | 
Nc1ccn([C@@H]2O[C@H](CO)[C@@H](Br)[C@@H]2O)c(=O)n1 | 10 µg/mL (≈ 32.7 µM) | 
O=c1ccn([C@@H]2O[C@H](CO)[C@@H](Br)[C@@H]2O)c(=O)[nH]1 |  | 6%
Nc1ccn([C@@H]2O[C@H](CO)[C@@H](I)[C@@H]2O)c(=O)n1 | 1 µg/mL (≈ 2.83 µM) | 
[N-]=[N+]=N[C@H]1[C@H](O)[C@H](n2ccc(=O)[nH]c2=O)O[C@@H]1CO |  | 0%
O=c1ccn([C@@H]2O[C@H](CO)[C@@H](N=C=S)[C@@H]2O)c(=O)[nH]1 |  | 5%
O=c1ccn([C@@H]2O[C@H](CO)[C@@H](I)[C@@H]2O)c(=O)[nH]1 |  | 0%
Nc1ccn([C@@H]2O[C@H](CO)[C@@H](N=C=S)[C@@H]2O)c(=O)n1 |  | 34%
